From patent US7101863B2, “Pharmaceutical compositions with wound healing or anti-complementary activity comprising a dextran derivative” (Biodex, priority 2000, dated 2006)

Assays:
[1] = tested on: complement system; experiment: In-vivo anticomplementary action, hemolytic CH50 assay on rat serum; design: species or system Sprague-Dawley rats; details: injection with Sephadex G25 20 μg and 50 μg of test substance
From the text: The anticomplementary action is studied by means of a hemolytic or CH50 assay, in accordance with a protocol in which the serum of the rats, withdrawn at different time intervals, is activated by sheep erythrocytes which are sensitized by rabbit antibodies directed against sheep red blood cells (EA). By definition, one CH50 unit corresponds to the concentration of complement proteins (contained in one milliliter of serum) which is capable of inducing the hemolysis of 50% of 2×10^7 activated EAs in a reaction medium where the volume, the temperature and the reaction time are kept constant. The number of hemolytic sites per cell is calculated.

[2] = tested on: right eye; experiment: In-vivo ocular healing after sodium hydroxide burn, histological studies; design: species or system New Zealand white rabbits; details: 100 μl three times daily; FGF-2 0.1 ng and/or dextran derivative 50 μg/ml
Method: 20 New Zealand white rabbits (10 males and 10 females) are used, with the rabbits being 1 year old and weighing from 2.5 to 3 kg; a 5.5 mm filter soaked in a 1N solution of sodium hydroxide was placed for 60 seconds on the right eye of these rabbits, which were then divided up into 4 groups of 5 animals each:
the first group is treated three times daily with 100 μl of a solution containing 0.1 ng of FGF-2 (Fibroblast Growth Factor-2);
the second group is treated three times daily with 100 μl of an isotonic solution containing 50 μg of a dextran derivative/ml of the general formula DMCaBbSuc in which a=0.75, b=0.31 and c=0.34;
the third group is treated three times daily with 100 μl of a solution containing 0.1 ng of FGF-2 and 50 μg of the above-mentioned dextran derivative/ml;
the fourth group (control group) is treated three times daily with 100 μl of a PBS buffer solution.
The speed of ocular healing in the four groups of animals is compared by means of histological studies carried out on days D1, D2, D4, D6 and D8.

[3] = tested on: gastric mucosa; experiment: In-vivo gastric healing, macroscopic impairment of the gastric mucosa; design: species or system Sprague-Dawley rats; key: 0: Normal mucosa.; +: Small superficial hemorrhagic striae.; ++: Short and broad superficial hemorrhagic striae.; +++: Long and broad superficial hemorrhagic striae.; ++++: Perforations; details: oral, dextran derivative and dextran T40 50 μg/kg, prostaglandin E2 10 μg/kg
Method: The animals employed are 12-week-old male Sprague-Dawley rats weighing from 200 to 250 g. Three batches of animals are used, with each consisting of 4 animals:
the first batch is treated with a dextran derivative of the general formula DMCaBbSuc in which a=0.75, b=0.25 and c=0.15, at the rate of 50 μg/kg,
the second batch serves as the control, with the animals being treated with a native dextran T40 (Pharmacia Fine Chemical; weight average molecular mass Mw: 37 500 g/mol; Mw/Mn: 1.7, with Mn representing the number average mass), at the rate of 50 μg/kg,
This batch therefore corresponds to a positive control.
The dextran derivative, the native dextran and the prostaglandin E2 are dissolved in physiological saline and administered orally to the animals.
The animals are sacrificed at different stages of healing, namely on D2, D4, D7 and D14, with the healing process being considered on days from the date on which the gastric irritation is induced. The gastric mucosa is recovered with a view to carrying out two studies:
quantification of the impairment of the gastric mucosa,
Table V represents a compilation of the results of the macroscopic study of the inflammatory reaction in the gastric mucosa, with the study being effected in accordance with the following scale: […]

native dextran
Inhibition of the activation of the complement (CH50) [1]: did not have any effect

FGF-2: Fibroblast Growth Factor-2
Duration of ocular healing (mean for each group of animals) [2]: 5 days

CCCCC[C@H](O)/C=C/[C@H]1[C@H](O)CC(=O)[C@@H]1C/C=C\CCCC(=O)O [Prostaglandin E2, prostaglandin E2]
Impairment of the gastric mucosa ([3]; D2): ++
Impairment of the gastric mucosa ([3]; D4): +
Impairment of the gastric mucosa ([3]; D7): +
Impairment of the gastric mucosa ([3]; D14): 0
